Test results from patent US6821988B2, “3-cyanoquinolines as inhibitors of EGF-R and HER2 kinases” (Wyeth Holdings Corporation, priority 2001, dated 2004).
Converted amounts (≈) assume the structure as drawn. “And” between values parts separate entries of the source, which are not always exact repeats. Equal entries are not always repeated.

Assays:
[1] = biological target: T1, human HER2 cytoplasmic domain (HER2-CD, amino acid 676-1255) (Homo sapiens, UniProt P04626); test: Inhibition of HER2 kinase autophosphorylation, recombinant enzyme, DELFIA/time-resolved fluorometry; type: biochemical; conditions: for inhibition at 2 µg/mL: read-out: HER2 % Inhibition at 2 μg/mL; for IC50: recombinant HER2 autophosphorylation
T1 construct: human HER2 cytoplasmic domain (HER2-CD, amino acid 676-1255); made in house; host or cells: Sf-9 insect cells, baculovirus (pBlueBacHis2B)
Procedure: (§1) A 1.7 kb cDNA encoding human HER2 cytoplasmic domain (HER2-CD, amino acid 676-1255) and 1.6 kb cDNA for EGFR cytoplasmic domain (EGFR-CD, amino acid 645-1186) were cloned into baculoviral expression vectors, pBlueBacHis2B (Invitrogen) and pFASTBacHTc (GIBCO), separately. A sequence encoding (His)6 is located at the 5′ end upstream to HER2 and EGFR sequences. Sf-9 cells were infected at moi=10 for 3 days for protein expression. Sf-9 cell pellets were solubilized on ice in buffer containing 50 mM HEPES, pH 7.4, 10 mM NaCl, 1% Triton, 10 μM ammonium molybdate, 100 μM sodium vanadate, 10 μg/ml aprotinin, 10 μg/ml leupeptin, 10 μg/ml pepstatin, and 16 ug/ml benzamidine HCl for 20 min followed by 20 min centrifugation. Crude extract supernatant was passed through equilibrated Ni-NTA superflow packed column (Qiagen, Valencia, Calif.) and wash with 10 mM, and 100 mM imidazole to remove unspecific binding. Histidine-tagged proteins were eluted with 250 mM and 500 mM imidazole and dialyzed against 50 mM NaCl, 20 mM HEPES, 10% glycerol and 1 μg/ml each of aprotinin, leupeptin and pepstatin for 2 h. All the purification procedure was performed at 4° C. or on ice. Purified materials were subjected for electrophoresis followed by Coommassie blue stain to determine the purity of the preparation and Western blot for the identity of protein. Enzymes were aliquoted and stored at −80° C.
(§2) Inhibition of EGFR and HER2 kinase autophosphorylation was measured by a DELFIA/time-resolved fluorometry assay. Compounds were dissolved in 100% DMSO and diluted to the appropriate concentrations with 25 mM HEPES, pH 7.4. In each well, 10 μl of compound was incubated with 10 μl of recombinant EGF-R or HER2 enzyme (1:80 dilution in 100 mM HEPES) for 10 min at room temperature. Then, 10 μl of 5×buffer (containing 20 mM HEPES, 2 mM MnCl2, 100 uM Na3VO4 and 1 mM DTT) and 20 μl of 0.1 mM ATP/50 mM MgCl2 was added for 1 h. Positive and negative controls were included in each plate by incubation of enzyme with or without ATP/MgCl2. At the end of incubation, liquid was aspirated and washed three times with wash buffer. 75 μl (400 ng).of europium-labeled anti-phosphotyrosine antibody was added to each well for another hour of incubation. After wash, enhancement solution was added and the signal was detected by Victor (Wallac Inc) with excitation at the wavelength of 340 nm and emission at the wavelength of 615 nm. All reagents were supplied by Wallac Inc (Wallac/Perkin-Elimer). Percentage of autophosphorylation inhibition by compound was calculated by […]. IC50 values were obtained from curves of percentage inhibition with 8 doses of compound.

BT474 (breast carcinoma) = test: Inhibition of cancer cell growth, sulforhodamine B assay, BT474; type: cell-based; conditions: Homo sapiens, BT-474, 48 h; BT474, 2 days; read-out: Inhibition of Cancer Cell Growth in vitro IC50, BT474
Procedure: (§3) […], A431 (epidermoid carcinoma), SKBR3 (breast carcinoma), SW620 (colon carcinoma), and MDA-MB435 (breast carcinoma), BT474 (breast carcinoma), and two murine lines, 3T3 (murine fiboblasts) and HER2-3T3 (murine fiboblasts transfected with human HER2) were used for cell proliferation assays. Cells were maintained in RPMI -1640 medium supplemented with 5% fetal bovine serum. Cells were plated in 96-well plates at the densities of 2.5×10^4/ml for 3T3 and 3T3/HER2 and 5.0×10^4/ml for the rest of the cell lines. On the next day, compounds were dosed at 0.5, 5, 50, 500, and 5000 ng/ml and cultured for 2 days. At the end of incubation, cell survival was determined by the sulforhodamine B assay as previously described (Skehan, P; Stornet, R.; Scudiero, D.; Monks, A.; McMahon, J.; Vistica D., Warren, J.; Bokbosch, H.; Kenny, S.; Boyd, M. New Colorimetric Cytotoxic Assay for Anticancer-Drug Screening. J. Natl. Cancer Inst. 1990, 82, 1107-1112). The IC50 values (the concentration needed to inhibit cell growth by 50%) were obtained from the growth curves and are shown below in Table 2 where the results of multiple determinations are included.

[2] = tested on: A431 (epidermoid carcinoma); test: Inhibition of cancer cell growth, sulforhodamine B assay, A431; type: cell-based, human; conditions: A431, 2 days; for IC50: Homo sapiens, A-431, 48 h, read-out: Inhibition of Cancer Cell Growth in vitro IC50, A431
Procedure: as §3

[3] = biological target: T2, EGFR cytoplasmic domain (EGFR-CD, amino acid 645-1186) (Homo sapiens, UniProt P00533); test: Inhibition of EGF-R kinase autophosphorylation, recombinant enzyme, DELFIA/time-resolved fluorometry; type: biochemical
T2 construct: EGFR cytoplasmic domain (EGFR-CD, amino acid 645-1186); made in house; host or cells: Sf-9 insect cells, baculovirus (pFASTBacHTc)
Procedure: as §1, §2

3T3 (murine fiboblasts) = test: Inhibition of cell growth, sulforhodamine B assay, 3T3; type: cell-based; conditions: 3T3, 2 days; for IC50: Mus musculus, 48 h, read-out: Inhibition of Cancer Cell Growth in vitro IC50, 3T3
Procedure: as §3

[4] = tested on: HER2-3T3 (murine fiboblasts transfected with human HER2); test: Inhibition of cell growth, sulforhodamine B assay, HER2-3T3; type: cell-based; conditions: HER2-3T3, 2 days; for IC50: Mus musculus, 48 h, read-out: Inhibition of Cancer Cell Growth in vitro IC50, HER2-3T3
Procedure: as §3

SKBR3 (breast carcinoma) = test: Inhibition of cancer cell growth, sulforhodamine B assay, SKBR3; type: cell-based, human; conditions: SKBR3, 2 days; for IC50: Homo sapiens, SK-BR-3, 48 h, read-out: Inhibition of Cancer Cell Growth in vitro IC50, SKBR3
Procedure: as §3

[5] = tested on: MDA-MB435 (breast carcinoma); test: Inhibition of cancer cell growth, sulforhodamine B assay, MDA-MB435; type: cell-based, human; conditions: MDA-MB435, 2 days; for IC50: Homo sapiens, MDA-MB-435, 48 h, read-out: Inhibition of Cancer Cell Growth in vitro IC50, MDA-MB435
Procedure: as §3

SW620 (colon carcinoma) = test: Inhibition of cancer cell growth, sulforhodamine B assay, SW620; type: cell-based, human; conditions: SW620, 2 days; for IC50: Homo sapiens, SW-620, 48 h, read-out: Inhibition of Cancer Cell Growth in vitro IC50, SW620
Procedure: as §3

[6] = tested on: Murine 3T3 fibroblasts, tranfected with Her2; test: In vivo inhibition of the growth of tumors of murine 3T3 fibroblasts transfected with HER2 in nude mice; parameters: species or system Athymic nu/nu female mice
Procedure: Representative compounds of this invention (listed below) were evaluated in an in vivo standard pharmacological test procedure which measures their ability to inhibit tumor growth in nude mice. Murine 3T3 fibroblasts, tranfected with Her2 were grown in vitro. Athymic nu/nu female mice (Charles River, Wilmington, Mass.) were used in this in vivo standard pharmacological test procedure. A unit of 2×10^6 cells was injected SC into mice (day zero). Beginning on day 1, mice were treated IP every other day for a total of 11 days with a dose of 30 mg/kg/dose of the compound to be evaluated in 0.5% Methocel/0.4% Tween 80. Control animals received vehicle alone. […] Absolute tumor growth in mgs, (mean tumor mass on days 7, 14 and 21), is calculated for each treatment group. Statistical analysis (Student t-test) of Mean Tumor Mass compares treated verses control groups. A p-value of ≦0.05 indicates a statistically significant reduction in tumor growth of treated group compared to the vehicle control.
The compound of Example 7 was evaluated for its ability to inhibit the growth of a murine fiboblast tumor that was transfected with human HER2 in vivo using the standard pharmacological test procedure described above.

[7] = 30 mg/kg/dose IP on days 1, 3, 5, 7, 9 and 11, day 7
[8] = 30 mg/kg/dose IP on days 1, 3, 5, 7, 9 and 11, day 14

T1 sequence (P04626 676-1255): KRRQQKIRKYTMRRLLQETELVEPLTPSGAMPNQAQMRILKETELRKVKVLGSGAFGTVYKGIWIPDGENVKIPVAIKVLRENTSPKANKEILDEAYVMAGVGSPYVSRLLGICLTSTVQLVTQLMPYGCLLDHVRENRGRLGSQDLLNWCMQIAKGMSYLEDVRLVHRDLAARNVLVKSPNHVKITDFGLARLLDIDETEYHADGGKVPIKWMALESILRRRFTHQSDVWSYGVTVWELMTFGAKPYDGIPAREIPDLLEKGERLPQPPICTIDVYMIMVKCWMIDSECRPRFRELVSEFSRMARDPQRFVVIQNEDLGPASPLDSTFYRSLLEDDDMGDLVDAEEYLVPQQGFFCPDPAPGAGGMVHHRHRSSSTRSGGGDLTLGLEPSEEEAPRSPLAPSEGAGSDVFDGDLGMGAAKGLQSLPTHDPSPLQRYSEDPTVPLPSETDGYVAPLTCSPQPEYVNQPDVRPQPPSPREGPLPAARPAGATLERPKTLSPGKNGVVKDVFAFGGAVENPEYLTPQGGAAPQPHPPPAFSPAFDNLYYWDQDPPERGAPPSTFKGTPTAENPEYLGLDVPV
T2 sequence (P00533 669-1210): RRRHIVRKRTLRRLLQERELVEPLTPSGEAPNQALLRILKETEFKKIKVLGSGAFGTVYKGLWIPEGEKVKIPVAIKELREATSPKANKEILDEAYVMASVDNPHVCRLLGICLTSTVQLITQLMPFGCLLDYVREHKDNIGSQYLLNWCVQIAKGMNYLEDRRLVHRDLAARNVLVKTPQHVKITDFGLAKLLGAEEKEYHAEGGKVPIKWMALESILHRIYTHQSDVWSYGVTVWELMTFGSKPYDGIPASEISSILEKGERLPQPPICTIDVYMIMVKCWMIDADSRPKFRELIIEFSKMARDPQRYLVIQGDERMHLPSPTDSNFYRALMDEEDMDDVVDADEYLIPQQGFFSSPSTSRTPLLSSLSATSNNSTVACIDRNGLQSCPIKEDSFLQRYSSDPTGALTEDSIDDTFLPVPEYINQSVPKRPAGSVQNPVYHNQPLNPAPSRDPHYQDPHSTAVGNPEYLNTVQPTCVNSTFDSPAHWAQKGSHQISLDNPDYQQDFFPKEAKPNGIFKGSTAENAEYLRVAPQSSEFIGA

IC50 [1]	Inhibition of Cancer Cell Growth in vitro IC50, A431 [2]	IC50 [2] [µg/mL]	Inhibition of Cancer Cell Growth in vitro IC50, SKBR3 (SKBR3 (breast carcinoma)) [µg/mL]	IC50 (SW620 (colon carcinoma)) [µg/mL]	SMILES	Inhibition of Cancer Cell Growth in vitro IC50, 3T3 (3T3 (murine fiboblasts))	IC50 (3T3 (murine fiboblasts)) [µg/mL]	Inhibition of Cancer Cell Growth in vitro IC50, HER2-3T3 [4]	IC50 [4] [µg/mL]	also measured
1320 nM and 787 nM	0.37 µg/mL and 0.28 µg/mL	0.242 (≈ 0.36 µM)			COc1cc2ncc(C#N)c(Nc3ccc(Sc4nc(-c5ccccc5)cs4)c(Cl)c3)c2cc1NC(=O)CC(CN(C)C)N(C)C (centres unmarked) [Example 1]	0.7 µg/mL and 0.57 µg/mL	0.76 (≈ 1.13 µM)	0.04 µg/mL and 0.03 µg/mL	0.041 (≈ 0.061 µM)	inhibition at 2 µg/mL [1]: 63%; IC50 (BT474 (breast carcinoma)): 0.02 µg/mL (≈ 0.0297 µM); IC50 [3]: 4760 nM
	0.466 µg/mL	0.572 (≈ 0.981 µM)	0.128	2.95 (≈ 5.06 µM)	COc1cc2ncc(C#N)c(Nc3ccc(F)c(Cl)c3)c2cc1NC(=O)CC(CN1CCC(O)C1)N1CCC(O)C1 (centres unmarked) [Example 2, N-[4-(3-Chloro-4-fluoro-phenylamino)-3-cyano-7-methoxy-quinolin-6-yl]-3,4-bis-(3-hydroxy-pyrrolidin-1-yl)-butyramide]	4.39 µg/mL	4.47 (≈ 7.67 µM)	0.702 µg/mL	1.26 (≈ 2.16 µM)	inhibition at 2 µg/mL [1]: 57%; IC50 (SKBR3 (breast carcinoma)): 0.129 µg/mL (≈ 0.221 µM); IC50 [5]: 4.05 µg/mL (≈ 6.95 µM); Inhibition of Cancer Cell Growth in vitro IC50, MDA-MB435 [5]: 3.25 µg/mL; Inhibition of Cancer Cell Growth in vitro IC50, SW620 (SW620 (colon carcinoma)): 2.58 µg/mL; melting point: 139 to 143 °C
10000 nM	0.27 µg/mL	0.48 (≈ 1.02 µM)	0.17	1.1 (≈ 2.34 µM)	CCOc1cc2ncc(C#N)c(Nc3ccc(F)c(Cl)c3)c2cc1NC(=O)CC(C)N(C)C (centres unmarked) [Example 3, N-[4-(3-Chloro-4-fluoroanilino)-3-cyano-7-ethoxy-6-quinolinyl]-3-(dimethylamino)butanamide]		1.3 (≈ 2.77 µM)		1.7 (≈ 3.62 µM)	EGF-R IC50 [3]: 0.33 µg/mL; IC50 (SKBR3 (breast carcinoma)): 0.11 µg/mL (≈ 0.234 µM)
1590 nM	0.73 µg/mL	0.87 (≈ 1.38 µM)		0.19 (≈ 0.302 µM)	CCOc1cc2ncc(C#N)c(Nc3ccc(OCc4ccccc4)c(Cl)c3)c2cc1NC(=O)CC(CCCN(C)C)N(C)C (centres unmarked) [Example 5, N-{4-[4-(Benzyloxy)-3-chloroanilino]-3-cyano-7-ethoxy-6-quinolinyl}-3,6-bis(dimethylamino)hexanamide]		0.42 (≈ 0.668 µM)		1.1 (≈ 1.75 µM)	EGF-R IC50 [3]: 1.0 µg/mL; IC50 [5]: 0.36 µg/mL (≈ 0.572 µM); Inhibition of Cancer Cell Growth in vitro IC50, MDA-MB435 [5]: 0.49 µg/mL
854 nM	0.21 µg/mL	0.2 (≈ 0.258 µM)		> 5	CCOc1cc2ncc(C#N)c(Nc3ccc(F)c(Cl)c3)c2cc1NC(=O)CC(CN(C)C)SCC(NC(=O)CC[C@@H](N)C(=O)O)C(=O)NCC(=O)O (stereo partly drawn) [Example 8, (2R)-2-amino-5-({2-[(carboxymethyl)amino]-1-[({3-{[4-(3-chloro-4-fluoroanilino)-3-cyano-7-ethoxy-6-quinolinyl]amino}-1-[(dimethylamino)methyl]-3-oxopropyl}sulfanyl)methyl]-2-oxoethyl}amino)-5-oxopentanoic acid]		> 5			IC50 [3]: 2190 nM
					CCOc1cc2ncc(C#N)c(Nc3ccc(OCc4ccccc4)c(Cl)c3)c2cc1NC(=O)CC(CN(C)C)N(C)C (centres unmarked) [Example 9, N-{4-[4-(Benzyloxy)-3-chloroanilino]-3-cyano-7-ethoxy-6-quinolinyl}-3,4-bis(dimethylamino)butanamide]					melting point: 102 to 104 °C

SMILES	IC50 [1]	Inhibition of Cancer Cell Growth in vitro IC50, A431 [2]	IC50 [2] [µg/mL]	Inhibition of Cancer Cell Growth in vitro IC50, SKBR3 (SKBR3 (breast carcinoma)) [µg/mL]	IC50 (SW620 (colon carcinoma)) [µg/mL]	Inhibition of Cancer Cell Growth in vitro IC50, 3T3 (3T3 (murine fiboblasts))	IC50 (3T3 (murine fiboblasts)) [µg/mL]	Inhibition of Cancer Cell Growth in vitro IC50, HER2-3T3 [4]	IC50 [4] [µg/mL]	also measured
CCOc1cc2ncc(C#N)c(Nc3ccc(OCc4ccccc4)c(Cl)c3)c2cc1NC(=O)CC(CN1CCCC1)N1CCCC1 (centres unmarked) [Example 7, N-{4-[4-(Benzyloxy)-3-chloroanilino]-3-cyano-7-ethoxy-6-quinolinyl}-3,4-di(1-pyrrolidinyl)butanamide]	33.7 nM			0.0025	0.23 (≈ 0.352 µM)	0.37 µg/mL	0.35 (≈ 0.536 µM)	0.014 µg/mL	0.017 (≈ 0.026 µM)	inhibition of tumor growth (in words) ([6]; 30 mg/kg i.p.): significantly inhibited tumor growth; tumors in the control mice larger than tumors in treated mice (fold) ([6]; 30 mg/kg i.p., day 14): 8.5 times; % T/C Day 7 [6, 7]: 15%; Mean Tumor Weight Day 7 [6, 7]: 39 mg; % T/C Day 14 [6, 8]: 12%; Mean Tumor Weight Day 14 [6, 8]: 261 mg; Mean Tumor Weight Day 21 ([6]; 30 mg/kg/dose IP on days 1, 3, 5, 7, 9 and 11, day 21): 1849 mg; S/T = No. Survivors/No. on Day +28 post tumor cell implantation ([6]; 30 mg/kg/dose IP on days 1, 3, 5, 7, 9 and 11, day +28): 10/10; Inhibition of Cancer Cell Growth in vitro IC50, SW620 (SW620 (colon carcinoma)): 0.28 µg/mL
